Patent publication US9890117B2, “Benzamide compounds and related methods of use” (Northwestern University, priority 2012, dated 2018)
Where a name gives a salt, the structure may show the parent alone.

Target: T1, SIRT2 (Homo sapiens, UniProt Q8IXJ6)
T1 construct: recombinant active enzymes SIRT1, SIRT2, and the catalytically active fragment of SIRT3
T1 sequence (Q8IXJ6 1-389): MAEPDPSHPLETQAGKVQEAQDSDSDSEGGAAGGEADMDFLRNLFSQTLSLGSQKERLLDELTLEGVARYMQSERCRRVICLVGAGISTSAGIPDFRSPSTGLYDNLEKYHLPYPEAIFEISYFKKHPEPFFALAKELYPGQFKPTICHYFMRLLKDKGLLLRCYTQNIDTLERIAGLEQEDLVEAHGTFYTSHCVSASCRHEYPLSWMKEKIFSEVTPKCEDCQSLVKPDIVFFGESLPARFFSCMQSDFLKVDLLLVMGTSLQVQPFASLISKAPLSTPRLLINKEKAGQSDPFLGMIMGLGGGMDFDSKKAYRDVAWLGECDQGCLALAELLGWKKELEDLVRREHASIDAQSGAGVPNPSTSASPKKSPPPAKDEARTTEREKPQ
Experiment: Fluor-de-Lys biochemical sirtuin deacetylation assay, SIRT2
Settings: 10 μM

[1] = sulfone, sulfoxide, thioether derivatives of C2-8 scaffold

CC(C)(Oc1cccc(C(=O)Nc2ccc(C#N)cc2)c1)c1ccc(F)cc1 [Compound 216p, N-(4-cyanophenyl)-3-((2-(4-fluorophenyl)propan-2-yl)oxy)benzamide]
inhibition at 10 µM: 55%

CN(c1ccc(Br)cc1)S(=O)(=O)c1cccc(C(=O)Nc2ccc(Br)cc2F)c1 [Compound 203r, N-(4-bromo-2-fluorophenyl)-3-(N-(4-bromophenyl)-N-methylsulfamoyl)benzamide]
inhibition at 10 µM: 30%

N#Cc1ccc(CN(Cc2cncc(C(=O)Nc3ccc(Cl)cc3)c2)C2CC2)cc1 [Compound 225o, N-(4-chlorophenyl)-5-(((4-cyanobenzyl)(cyclopropyl)amino)methyl)nicotinamide hydrochloride]
inhibition at 10 µM: 8%

N#Cc1ccc(NC(=O)c2cccc(CN(Cc3ccc(C(F)(F)F)cc3)C3CC3)c2)cc1 [Compound 225e, N-(4-cyanophenyl)-3-((cyclopropyl(4-(trifluoromethyl)benzyl)amino)methyl)-benzamide hydrochloride]
inhibition at 10 µM: 49%

COc1ccc(C[S+]([O-])c2cccc(C(=O)Nc3ccc(C#N)cc3)c2)cc1 (stereo not drawn) [Compound 189, N-(4-cyanophenyl)-3-((4-methoxybenzyl)sulfinyl)benzamide]
inhibition at 10 µM [1]: 21%

CN(c1ccc(Cl)cc1)S(=O)(=O)c1cccc(C(=O)NCc2ccccn2)c1 [Compound 53, 3-(N-(4-chlorophenyl)-N-methylsulfamoyl)-N-(pyridin-2-ylmethyl)benzamide]
% of SIRT2 Inhibition at 10 μM (C2-8 derivatives): 0%

O=C(Nc1ccc(Cl)cc1)c1cccc(S(=O)(=O)Cc2ccc(Cl)cc2)c1 [Compound 171, 3-((4-chlorobenzyl)sulfonyl)-N-(4-chlorophenyl)benzamide]
inhibition at 10 µM [1]: 0%

CC(=O)c1ccc(NC(=O)c2cccc(OC(C)c3ccc(C(C)=O)cc3)c2)cc1 (stereo not drawn) [Compound 216Ay, N-(4-acetylphenyl)-3-(1-(4-acetylphenyl)ethoxy)benzamide]
inhibition at 10 µM: 94%

CN(c1ccc(Cl)cc1)S(=O)(=O)c1cccc(NC(=O)Nc2ccc(Cl)cc2)c1 [Compound 233a, N-(4-chlorophenyl)-3-(3-(4-chlorophenyl)ureido)-N-methylbenzenesulfonamide]
inhibition at 10 µM: 0%

C[S+]([O-])c1ccc(NC(=O)c2cccc(S(=O)(=O)Cc3ccc(Cl)cc3)c2)cc1 (stereo not drawn) [Compound 188, 3-((4-chlorobenzyl)sulfonyl)-N-(4-(methylsulfinyl)phenyl)benzamide]
% of SIRT2 Inhibition at 10 μM [1]: 18%

O=C(Nc1ccc(Br)cc1)c1cccc(S(=O)(=O)Cc2ccc(Cl)cc2)c1 [Compound 172, N-(4-bromophenyl)-3-((4-chlorobenzyl)sulfonyl)benzamide]
inhibition at 10 µM [1]: 0%

N#Cc1ccc(NC(=O)c2cccc(NCc3ccc(F)cc3)c2)nc1 [Compound 221b, N-(5-cyanopyridin-2-yl)-3-((4-fluorobenzyl)amino)benzamide]
inhibition at 10 µM: 28%

CN(C(=O)c1cncc(CN(Cc2ccc(F)c(F)c2)C2CC2)c1)c1ccc(C#N)cc1 [Compound 225n, N-(4-cyanophenyl)-5-((cyclopropyl(3,4-difluorobenzyl)amino)methyl)-N-methylnicotinamide hydrochloride]
inhibition at 10 µM: 0%

C[C@@H](Oc1cccc(C(=O)Nc2ccc(C#N)cc2)c1)c1ccc(C#N)cc1 [Compound 216Ag, (R)—N-(4-cyanophenyl)-3-(1-(4-cyanophenyl)ethoxy)benzamide]
inhibition at 10 µM: 92%

N#Cc1ccc(/N=C(/N)c2cccc(OCc3cccc(F)c3F)c2)cc1 [Compound 234a, N′-(4-cyanophenyl)-3-((2,3-difluorobenzyl)oxy)benzimidamide hydrochloride]
inhibition at 10 µM: 12%

CN(c1ccc([S+](C)[O-])cc1)S(=O)(=O)c1cccc(C(=O)Nc2ccc(Cl)cc2F)c1 (stereo not drawn) [Compound 203Ad, N-(4-chloro-2-fluorophenyl)-3-(N-methyl-N-(4-(methylsulfinyl)phenyl)sulfamoyl)-benzamide]
inhibition at 10 µM: 0%

N#Cc1ccc(COc2cc(OC[C@@H](O)CO)cc(C(=O)Nc3ccc(C#N)cc3)c2)cc1 [Compound 216x, (S)-3-((4-cyanobenzyl)oxy)-N-(4-cyanophenyl)-5-(2,3-dihydroxypropoxy)benzamide]
inhibition at 10 µM: 25%

CC(=O)c1ccc(CN(Cc2cncc(C(=O)N(C)c3ccc(C#N)cc3)c2)C2CC2)cc1 [Compound 225s, 5-(((4-acetylbenzyl)(cyclopropyl)amino)methyl)-N-(4-cyanophenyl)-N-methylnicotinamide hydrochloride]
inhibition at 10 µM: 3%

COc1ccc(N(C)S(=O)(=O)c2cccc(/C(N)=N\c3ccc(C#N)cc3)c2)cc1 [Compound 234d, N′-(4-cyanophenyl)-3-(N-(4-methoxyphenyl)-N-methylsulfamoyl)benzimidamide hydrochloride]
inhibition at 10 µM: 12%

CC(=O)c1ccc(COc2cccc(C(=O)Nc3ccc(C#N)cc3)c2)cc1 [Compound 216Ar, 3-((4-acetylbenzyl)oxy)-N-(4-cyanophenyl)benzamide]
inhibition at 10 µM: 27%

Cc1cc(Br)ccc1NC(=O)c1cccc(S(=O)(=O)N(C)c2ccc(Br)cc2)c1 [Compound 203e, N-(4-bromo-2-methylphenyl)-3-(N-(4-bromophenyl)-N-methylsulfamoyl)benzamide]
inhibition at 10 µM: 0%

N#Cc1ccc(NC(=O)c2cccc(SCc3ccc(Cl)cc3)c2)cc1 [Compound 181, 3-((4-chlorobenzyl)thio)-N-(4-cyanophenyl)benzamide]
inhibition at 10 µM [1]: 81%

CC(=O)c1ccc(C(C)(C)Oc2cccc(C(=O)Nc3ccc(Br)cc3)c2)cc1 [Compound 216At, 3-((2-(4-acetylphenyl)propan-2-yl)oxy)-N-(4-bromophenyl)benzamide]
inhibition at 10 µM: 34%

O=C(Nc1ccc(Cl)cn1)c1cccc(S(=O)(=O)Cc2ccc(Cl)cc2)c1 [Compound 173, 3-((4-chlorobenzyl)sulfonyl)-N-(5-chloropyridin-2-yl)benzamide]
inhibition at 10 µM [1]: 2%

C[C@@H](N)c1ccc(N(C)S(=O)(=O)c2cccc(C(=O)Nc3ccc(C#N)cc3)c2)cc1 [Compound 203At, (R)-3-(N-(4-(1-aminoethyl)phenyl)-N-methylsulfamoyl)-N-(4-cyanophenyl)-benzamide hydrochloride]
inhibition at 10 µM: 38%

CC(O)c1ccc([C@@H](C)Oc2cncc(C(=O)Nc3ccc(C#N)cc3)c2)cc1 (stereo partly drawn) [Compound 216Aq, N-(4-cyanophenyl)-5-((1R)-1-(4-(1-hydroxyethyl)phenyl)ethoxy)nicotinamide]
inhibition at 10 µM: 0%

CC(=O)c1ccc(C(C)Oc2cccc(C(=O)Nc3ccc(C(F)(F)F)cc3)c2)cc1 (stereo not drawn) [Compound 216Bc, 3-(1-(4-acetylphenyl)ethoxy)-N-(4-(trifluoromethyl)phenyl)benzamide]
inhibition at 10 µM: 77%

CS(=O)(=O)c1ccc(NC(=O)c2cccc(S(=O)(=O)Cc3ccc(Cl)cc3)c2)cc1 [Compound 177, 3-((4-chlorobenzyl)sulfonyl)-N-(4-(methylsulfonyl)phenyl)benzamide]
inhibition at 10 µM [1]: 17%

CC(=O)c1ccc(C(C)(C)Oc2cccc(C(=O)Nc3ccc(C#N)cc3)c2)cc1 [Compound 216Ai, 3-((2-(4-acetylphenyl)propan-2-yl)oxy)-N-(4-cyanophenyl)benzamide]
inhibition at 10 µM: 80%

N#Cc1ccc(NC(=O)c2cccc(CN(Cc3cc(F)cc(F)c3)C3CC3)c2)cc1 [Compound 225f, N-(4-cyanophenyl)-3-((cyclopropyl(3,5-difluorobenzyl)amino)methyl)benzamide hydrochloride]
inhibition at 10 µM: 64%

CN(c1ccc(Br)cc1)S(=O)(=O)c1cccc(C(=O)Nc2ccc(Cl)nn2)c1 [Compound 85, 3-(N-(4-bromophenyl)-N-methylsulfamoyl)-N-(6-chloropyridazin-3-yl)benzamide]
inhibition at 10 µM (C2-8 derivatives): 16%

CC(=O)c1ccc([C@@H](C)Oc2cccc(C(=O)Nc3ccc(C#N)cc3)c2)cc1 [Compound 216Ak, (R)-3-(1-(4-acetylphenyl)ethoxy)-N-(4-cyanophenyl)benzamide]
inhibition at 10 µM: 98%

CCN(CC)CCOc1cc(OCc2ccc(C#N)cc2)cc(C(=O)Nc2ccc(C#N)cc2)c1 [Compound 216y, 3-((4-cyanobenzyl)oxy)-N-(4-cyanophenyl)-5-(2-(diethylamino)ethoxy)benzamide]
inhibition at 10 µM: 19%

N#Cc1ccc(COc2cccc(/C(N)=N\c3ccc(C#N)cc3)c2)cc1 [Compound 234b, 3-((4-cyanobenzyl)oxy)-N′-(4-cyanophenyl)benzimidamide hydrochloride]
inhibition at 10 µM: 12%

CC(=O)c1ccc(C(C)Oc2cccc(C(=O)Nc3ccc(S(C)(=O)=O)cc3)c2)cc1 (stereo not drawn) [Compound 216Bb, 3-(1-(4-acetylphenyl)ethoxy)-N-(4-(methylsulfonyl)phenyl)benzamide]
inhibition at 10 µM: 70%

N#Cc1ccc(NC(=O)c2cccc(S(=O)(=O)Cc3ccc(Cl)cc3)c2)nc1 [Compound 176, 3-((4-chlorobenzyl)sulfonyl)-N-(5-cyanopyridin-2-yl)benzamide]
inhibition at 10 µM [1]: 36%

O=C(Nc1ccc(C(F)(F)F)cc1)c1cncc(CN(Cc2ccc(F)c(F)c2)C2CC2)c1 [Compound 225v, 5-((cyclopropyl(3,4-difluorobenzyl)amino)methyl)-N-(4-(trifluoromethyl)phenyl)-nicotinamide hydrochloride]
inhibition at 10 µM: 3%

COc1ccc(NC(=O)c2cccc(OC(C)c3ccc(C(C)=O)cc3)c2)cc1 (stereo not drawn) [Compound 216Ax, 3-(1-(4-acetylphenyl)ethoxy)-N-(4-methoxyphenyl)benzamide]
inhibition at 10 µM: 56%

CN(C(=O)c1cccc(S(=O)(=O)N(C)c2ccc(Br)cc2)c1)c1ccc(F)cc1F [Compound 203t, 3-(N-(4-bromophenyl)-N-methylsulfamoyl)-N-(2,4-difluorophenyl)-N-methyl-benzamide]
inhibition at 10 µM: 17%
